The target in the experiment is T1, human capsaicin receptor (Homo sapiens, UniProt Q8NER1).
T1 construct: transfected with the pBK-CMV expression construct encoding the full length human capsaicin receptor; expressed in transfected cells
The experiment can be described thus: Calcium mobilization assay (antagonist and agonist activity). The class given is cell-based. As to conditions: capsaicin as positive control in agonist assay; read-out: approximate EC90 concentration. As to the method: This Example illustrates representative calcium mobilization assays for use in evaluating test compounds for agonist and antagonist activity.
The culture medium is emptied from the 96 well plates and FLUO-3 AM calcium sensitive dye (Molecular Probes, Eugene, Oreg.) is added to each well (dye solution: 1 mg FLUO-3 AM, 440 μL DMSO and 440 μl 20% pluronic acid in DMSO, diluted 1:250 in Krebs-Ringer HEPES (KRH) buffer (25 mM HEPES, 5 mM KCl, 0.96 mM NaH2PO4, 1 mM MgSO4, 2 mM CaCl2, 5 mM glucose, 1 mM probenecid, pH 7.4), 50 μl diluted solution per well). Plates are covered with aluminum foil and incubated at 37° C. for 1-2 hours in an environment containing 5% CO2. […]
To measure the ability of a test compound to agonize or antagonize a calcium mobilization response in cells expressing capsaicin receptors to capsaicin or other vanilloid agonist, the EC50 of the agonist capsaicin is first determined. […] Capsaicin-induced calcium mobilization is monitored using either FLUOROSKAN ASCENT (Labsystems; Franklin, Mass.) or FLIPR (fluorometric imaging plate reader system; Molecular Devices, Sunnyvale, Calif.) instruments. […]
In this equation, y is the maximum fluorescence signal, x is the concentration of the agonist or antagonist (in this case, capsaicin), a is the Emax, b corresponds to the EC50 value and c is the Hill coefficient. […]
(A change in cytosolic calcium serves as a functional read-out for many receptors and channels.)

T1 sequence (Q8NER1 whole entry): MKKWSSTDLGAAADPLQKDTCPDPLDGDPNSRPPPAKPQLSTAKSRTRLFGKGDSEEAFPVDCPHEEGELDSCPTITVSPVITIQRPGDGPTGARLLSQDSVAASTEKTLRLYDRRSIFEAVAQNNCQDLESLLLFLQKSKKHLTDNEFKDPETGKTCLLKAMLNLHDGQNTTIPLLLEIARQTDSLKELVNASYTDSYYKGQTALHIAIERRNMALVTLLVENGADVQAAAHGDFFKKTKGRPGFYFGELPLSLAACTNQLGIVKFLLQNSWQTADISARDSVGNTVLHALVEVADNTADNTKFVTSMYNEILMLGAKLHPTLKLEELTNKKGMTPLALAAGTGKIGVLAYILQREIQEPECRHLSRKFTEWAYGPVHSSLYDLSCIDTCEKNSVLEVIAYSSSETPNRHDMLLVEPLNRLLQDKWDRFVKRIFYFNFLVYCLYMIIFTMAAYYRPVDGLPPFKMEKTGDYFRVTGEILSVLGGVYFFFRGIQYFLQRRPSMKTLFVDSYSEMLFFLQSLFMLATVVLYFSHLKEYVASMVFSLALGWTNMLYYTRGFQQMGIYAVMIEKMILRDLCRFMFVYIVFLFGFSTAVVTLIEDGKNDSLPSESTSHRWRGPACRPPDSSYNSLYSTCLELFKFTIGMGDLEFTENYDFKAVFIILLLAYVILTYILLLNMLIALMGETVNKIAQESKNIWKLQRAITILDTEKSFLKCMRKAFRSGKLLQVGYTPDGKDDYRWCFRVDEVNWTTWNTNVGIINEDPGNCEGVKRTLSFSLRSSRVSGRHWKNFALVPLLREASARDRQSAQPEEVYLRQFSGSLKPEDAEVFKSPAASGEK

For `COc1cc(CNC(=O)CCCC/C=C/C(C)C)ccc1O` [capsaicin], the EC90 is about 100 nM.

Values taken from patent US20080125466A1, “Aryl-Substituted Benzo[D]Isothiazol-3-Ylamine Analogues” (NEUROGEN CORPORATION, priority 2003, published 2008).
